Data taken from patent US8399476B2, “Imidazo[1,2-a]pyridines and their use as pharmaceuticals” (Sanofi, priority 2007, dated 2013).
Counter-ions that a name gives are not always drawn.

system: eNOS promoter; assay: Activation of eNOS transcription (eNOS promoter firefly luciferase reporter gene assay); type: cell-based; conditions: human endothelial cell line stably transfected with eNOS promoter-luciferase construct, 18 h incubation; read-out: EC50 values of transcription induction ratios (TIR)
Experimental: Activation of eNOS transcription was measured as described in detail by Li et al., “Activation of protein kinase C alpha and/or epsilon enhances transcription of the human endothelial nitric oxide synthase gene”, Mol. Pharmacol. 53 (1998) 630. Briefly, a 3.5 kB long fragment 5′ of the starting codon of the eNOS gene was cloned, sequenced and cloned in firefly luciferase expression plasmids to monitor activation of the eNOS promoter by reporter gene activity. A human endothelial cell line stable transfected and expressing this promoter-reporter construct was used for compound testing. Cells were incubated for 18 h with the compounds.
All compounds were dissolved in sterile dimethyl sulfoxide (DMSO). A final concentration of 0.5% DMSO in complete medium was allowed. Induction of reporter gene expression in these cells was measured using a standard luciferase assay system (Promega, Cat. No. E150) according to the manufacturer's instructions. Luciferase induction in cells incubated with compounds were compared to those incubated with solvent alone. The ratio of both activities (transcription induction ratio, TIR) was plotted as a function of compound concentration. Typically, TIR values started at low concentrations at a ratio of 1, indicating no compound effect, and extended up to a maximum TIR value TIR(max) which indicates the increase of the eNOS transcription. EC50 values of transcription induction ratios as a function of compound concentration were determined graphically.

EC50, < 500 nM:
COC(=O)c1ccc2nc(-c3ccc(F)cc3)cn2c1 [Example 1, 2-(4-Fluoro-phenyl)-imidazo[1,2-a]pyridine-6-carboxylic acid methyl ester]
COC(=O)c1ccc2nc(-c3ccc(Br)cc3)c(C)n2c1 [Example 2, 2-(4-Bromo-phenyl)-3-methyl-imidazo[1,2-a]pyridine-6-carboxylic acid methyl ester]
COC(=O)c1ccc2nc(-c3ccccc3)c(C)n2c1 [Example 3, 3-Methyl-2-phenyl-imidazo[1,2-a]pyridine-6-carboxylic acid methyl ester]
COC(=O)c1ccc2nc(-c3ccccc3F)cn2c1 [Example 5, 2-(2-Fluoro-phenyl)-imidazo[1,2-a]pyridine-6-carboxylic acid methyl ester]
COC(=O)c1ccc2nc(-c3ccc(C)cc3)cn2c1 [Example 7, 2-p-Tolyl-imidazo[1,2-a]pyridine-6-carboxylic acid methyl ester]
COC(=O)c1ccc2nc(-c3cccc([N+](=O)[O-])c3)cn2c1 [Example 8, 2-(3-Nitro-phenyl)-imidazo[1,2-a]pyridine-6-carboxylic acid methyl ester]
COC(=O)c1ccc2nc(-c3ccc(OC)cc3)cn2c1 [Example 10, 2-(4-Methoxy-phenyl)-imidazo[1,2-a]pyridine-6-carboxylic acid methyl ester]
COC(=O)c1ccc2nc(-c3ccc(Br)cc3)cn2c1 [Example 12, 2-(4-Bromo-phenyl)-imidazo[1,2-a]pyridine-6-carboxylic acid methyl ester]
COC(=O)c1ccc2nc(-c3ccccc3)cn2c1 [Example 13, 2-Phenyl-imidazo[1,2-a]pyridine-6-carboxylic acid methyl ester]
COC(=O)c1ccc2nc(-c3cccc(F)c3)cn2c1 [Example 14, 2-(3-Fluoro-phenyl)-imidazo[1,2-a]pyridine-6-carboxylic acid methyl ester]
COC(=O)c1ccc2nc(-c3ccc(C(F)(F)F)cc3)cn2c1 [Example 15, 2-(4-Trifluoromethyl-phenyl)-imidazo[1,2-a]pyridine-6-carboxylic acid methyl ester]
COC(=O)c1ccc2nc(-c3ccc(OC(F)(F)F)cc3)cn2c1 [Example 16, 2-(4-Trifluoromethoxy-phenyl)-imidazo[1,2-a]pyridine-6-carboxylic acid methyl ester]
CCN(CC)c1ccc(-c2cn3cc(C(=O)OC)ccc3n2)cc1 [Example 17, 2-(4-Diethylamino-phenyl)-imidazo[1,2-a]pyridine-6-carboxylic acid methyl ester]
COC(=O)c1ccc2nc(-c3ccc(F)c(F)c3)cn2c1 [Example 19, 2-(3,4-Difluoro-phenyl)-imidazo[1,2-a]pyridine-6-carboxylic acid methyl ester]
COC(=O)c1ccc2nc(-c3ccccc3Cl)cn2c1 [Example 20, 2-(2-Chloro-phenyl)-imidazo[1,2-a]pyridine-6-carboxylic acid methyl ester]
COC(=O)c1ccc2nc(-c3ccc(Br)c(S(N)(=O)=O)c3)cn2c1 [Example 21, 2-(4-Bromo-3-sulfamoyl-phenyl)-imidazo[1,2-a]pyridine-6-carboxylic acid methyl ester]
COC(=O)c1ccc2nc(-c3cccc(C#N)c3)cn2c1 [Example 23, 2-(3-Cyano-phenyl)-imidazo[1,2-a]pyridine-6-carboxylic acid methyl ester]
COC(=O)c1ccc2nc(-c3cccc(Br)c3)cn2c1 [Example 24, 2-(3-Bromo-phenyl)-imidazo[1,2-a]pyridine-6-carboxylic acid methyl ester]
COC(=O)c1ccc2nc(-c3ccc(C)cc3C)cn2c1 [Example 25, 2-(2,4-Dimethyl-phenyl)-imidazo[1,2-a]pyridine-6-carboxylic acid methyl ester]
COC(=O)c1ccc2nc(-c3ccc(Cl)cc3Cl)cn2c1 [Example 28, 2-(2,4-Dichloro-phenyl)-imidazo[1,2-a]pyridine-6-carboxylic acid methyl ester]
COC(=O)c1ccc2nc(-c3cccc(Cl)c3)cn2c1 [Example 31, 2-(3-Chloro-phenyl)-imidazo[1,2-a]pyridine-6-carboxylic acid methyl ester]
COC(=O)c1ccc2nc(-c3cc(F)cc(F)c3)cn2c1 [Example 32, 2-(3,5-Difluoro-phenyl)-imidazo[1,2-a]pyridine-6-carboxylic acid methyl ester]
COC(=O)c1ccc2nc(-c3cccc(C(F)(F)F)c3)cn2c1 [Example 33, 2-(3-Trifluoromethyl-phenyl)-imidazo[1,2-a]pyridine-6-carboxylic acid methyl ester]
COC(=O)c1ccc2nc(-c3ccc4c(c3)OCCO4)cn2c1 [Example 34, 2-(2,3-Dihydro-benzo[1,4]dioxin-6-yl)-imidazo[1,2-a]pyridine-6-carboxylic acid methyl ester]
COC(=O)c1ccc2nc(-c3ccc(-c4ccccc4)cc3)cn2c1 [Example 37, 2-Biphenyl-4-yl-imidazo[1,2-a]pyridine-6-carboxylic acid methyl ester]
COC(=O)c1ccc2nc(-c3ccc([N+](=O)[O-])cc3)cn2c1 [Example 38, 2-(4-Nitro-phenyl)-imidazo[1,2-a]pyridine-6-carboxylic acid methyl ester]
COC(=O)c1ccc2nc3c(n2c1)Cc1ccccc1-3 [Example 42, 11H-Indeno[1′,2′:4,5]imidazo[1,2-a]pyridine-8-carboxylic acid methyl ester]
COC(=O)c1ccc2nc(-c3ccc(N)cc3)cn2c1 [Example 44, 2-(4-Amino-phenyl)-imidazo[1,2-a]pyridine-6-carboxylic acid methyl ester]
Cc1ccc(-c2cn3cc(C(=O)O)ccc3n2)cc1 [Example 46, 2-p-Tolyl-imidazo[1,2-a]pyridine-6-carboxylic acid]
N#Cc1ccc2nc(-c3ccc(F)cc3)cn2c1 [Example 52, 2-(4-Fluoro-phenyl)-imidazo[1,2-a]pyridine-6-carbonitrile]
CCN(CC)c1ccc(-c2cn3cc(C#N)ccc3n2)cc1 [Example 53, 2-(4-Diethylamino-phenyl)-imidazo[1,2-a]pyridine-6-carbonitrile trifluoroacetic acid salt]
Cc1ccc(-c2cn3cc(C#N)ccc3n2)cc1 [Example 54, 2-p-Tolyl-imidazo[1,2-a]pyridine-6-carbonitrile]
N=C(NO)c1ccc2nc(-c3ccc(F)cc3)cn2c1 [Example 56, 2-(4-Fluoro-phenyl)-N-hydroxy-imidazo[1,2-a]pyridine-6-carboxamidine]
Cc1ccc(-c2cn3cc(/C(N)=N/O)ccc3n2)cc1 [Example 57, N-Hydroxy-2-p-tolyl-imidazo[1,2-a]pyridine-6-carboxamidine]
CCOC(=O)ONC(=N)c1ccc2nc(-c3ccc(F)cc3)cn2c1 [Example 60, 2-(4-Fluoro-phenyl)-N-ethoxycarbonyloxy-imidazo[1,2-a]pyridine-6-carboxamidine]
Fc1ccc(-c2cn3cc(Br)ccc3n2)cc1 [Example 61, 6-Bromo-2-(4-fluoro-phenyl)-imidazo[1,2-a]pyridine]
Nc1ccc2nc(-c3ccc(F)cc3)cn2c1 [Example 66, 2-(4-Fluoro-phenyl)-imidazo[1,2-a]pyridin-6-ylamine]
O=CNc1ccc2nc(-c3ccc(F)cc3)cn2c1 [Example 67, N-[2-(4-Fluoro-phenyl)-imidazo[1,2-a]pyridin-6-yl]-formamide]
